pIC50: −log10 of the molar value.
Tests used:
[1] = biological target: Tyrosine-protein kinase ABL1 (Homo sapiens, UniProt P00519); experiment: Inhibition of wild type c-Abl
[2] = biological target: Cyclin-dependent kinase 2 (Homo sapiens, UniProt P24941); experiment: Inhibition of wild type CDK2
[3] = biological target: Tyrosine-protein kinase Fyn (Homo sapiens, UniProt P06241); experiment: Inhibition of wild type c-Fyn
[4] = Inhibition of c-Fyn T339G mutant
[5] = Inhibition of wild type CAMK2
[6] = biological target: Tyrosine-protein kinase ABL1 (Homo sapiens, UniProt P00519, T315A); experiment: Inhibition of c-Abl T315A mutant
[7] = Inhibition of wild-type v-Src
[8] = Inhibition of v-Src kinase I338G mutant
[9] = biological target: Calcium/calmodulin-dependent protein kinase type II subunit alpha (Homo sapiens, UniProt Q9UQM7, F89G); experiment: Inhibition of CAMK2 F89G mutant
[10] = biological target: Cyclin-dependent kinase 2 (Homo sapiens, UniProt P24941, F80G); experiment: Inhibition of CDK2 F80G mutant

Tyrosine-protein kinase ABL1 (Homo sapiens, UniProt P00519), sequence (P00519 whole entry): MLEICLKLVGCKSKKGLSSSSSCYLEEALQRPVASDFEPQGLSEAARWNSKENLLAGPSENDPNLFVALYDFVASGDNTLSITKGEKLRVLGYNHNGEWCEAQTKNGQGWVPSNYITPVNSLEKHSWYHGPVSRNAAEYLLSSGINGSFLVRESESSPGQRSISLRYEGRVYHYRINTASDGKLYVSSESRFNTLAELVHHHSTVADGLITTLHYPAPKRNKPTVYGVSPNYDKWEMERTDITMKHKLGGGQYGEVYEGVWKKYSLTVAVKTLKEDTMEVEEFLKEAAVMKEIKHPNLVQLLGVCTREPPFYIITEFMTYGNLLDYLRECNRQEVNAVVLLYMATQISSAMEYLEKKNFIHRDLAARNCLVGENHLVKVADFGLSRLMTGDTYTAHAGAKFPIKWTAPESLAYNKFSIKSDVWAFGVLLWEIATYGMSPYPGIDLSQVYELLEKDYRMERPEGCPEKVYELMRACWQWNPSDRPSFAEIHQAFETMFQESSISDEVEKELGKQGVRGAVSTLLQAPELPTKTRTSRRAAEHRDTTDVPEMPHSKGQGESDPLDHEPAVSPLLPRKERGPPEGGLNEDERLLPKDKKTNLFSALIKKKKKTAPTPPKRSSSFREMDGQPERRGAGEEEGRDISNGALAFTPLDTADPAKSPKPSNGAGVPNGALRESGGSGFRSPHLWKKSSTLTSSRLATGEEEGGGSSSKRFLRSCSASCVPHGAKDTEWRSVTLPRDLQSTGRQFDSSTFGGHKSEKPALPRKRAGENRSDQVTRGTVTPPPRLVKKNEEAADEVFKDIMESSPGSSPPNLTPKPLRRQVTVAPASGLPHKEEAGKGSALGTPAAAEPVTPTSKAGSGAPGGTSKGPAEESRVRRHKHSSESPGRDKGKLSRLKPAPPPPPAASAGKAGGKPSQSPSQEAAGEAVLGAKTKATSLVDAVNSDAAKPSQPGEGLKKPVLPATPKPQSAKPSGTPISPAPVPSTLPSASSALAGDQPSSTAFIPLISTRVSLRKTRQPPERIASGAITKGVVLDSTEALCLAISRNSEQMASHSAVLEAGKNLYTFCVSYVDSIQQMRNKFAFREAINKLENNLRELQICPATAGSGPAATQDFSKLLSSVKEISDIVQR
Calcium/calmodulin-dependent protein kinase type II subunit alpha, sequence (Q9UQM7 whole entry F89G): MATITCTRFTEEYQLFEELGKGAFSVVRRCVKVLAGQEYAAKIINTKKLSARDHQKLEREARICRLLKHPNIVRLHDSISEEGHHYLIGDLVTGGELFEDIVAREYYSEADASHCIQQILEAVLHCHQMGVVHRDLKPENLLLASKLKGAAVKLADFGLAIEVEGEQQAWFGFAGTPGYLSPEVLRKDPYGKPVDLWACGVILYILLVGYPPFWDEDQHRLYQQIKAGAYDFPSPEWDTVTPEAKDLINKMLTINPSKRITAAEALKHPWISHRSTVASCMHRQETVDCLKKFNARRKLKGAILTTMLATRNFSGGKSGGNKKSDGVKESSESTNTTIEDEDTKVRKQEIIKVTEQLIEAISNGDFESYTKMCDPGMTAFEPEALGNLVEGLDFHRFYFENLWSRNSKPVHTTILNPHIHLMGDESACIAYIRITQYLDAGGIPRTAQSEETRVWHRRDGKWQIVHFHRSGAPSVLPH
Tyrosine-protein kinase ABL1 (Homo sapiens, UniProt P00519, T315A), sequence (P00519 whole entry T315A): as the sequence (P00519 whole entry) above, with T315A counted along it
Tyrosine-protein kinase Fyn, sequence (P06241 whole entry): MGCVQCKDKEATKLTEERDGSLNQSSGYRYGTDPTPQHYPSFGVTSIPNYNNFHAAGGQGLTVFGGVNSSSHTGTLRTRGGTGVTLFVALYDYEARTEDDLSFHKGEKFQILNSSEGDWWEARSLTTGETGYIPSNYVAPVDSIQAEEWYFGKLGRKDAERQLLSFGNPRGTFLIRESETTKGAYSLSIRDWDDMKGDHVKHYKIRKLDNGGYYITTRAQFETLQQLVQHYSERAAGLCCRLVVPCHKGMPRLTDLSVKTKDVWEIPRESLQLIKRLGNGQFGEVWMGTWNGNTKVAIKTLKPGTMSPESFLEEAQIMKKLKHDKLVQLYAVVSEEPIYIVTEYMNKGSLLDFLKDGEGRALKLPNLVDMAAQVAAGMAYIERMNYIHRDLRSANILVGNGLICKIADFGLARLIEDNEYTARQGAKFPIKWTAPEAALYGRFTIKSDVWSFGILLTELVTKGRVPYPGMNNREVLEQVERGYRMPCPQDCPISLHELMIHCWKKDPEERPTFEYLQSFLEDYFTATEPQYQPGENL

| pIC50 [1] | pIC50 [2] | pIC50 [3] | pIC50 [4] | pIC50 [5] | pIC50 [6] | pIC50 [7] | pIC50 [8] | pIC50 [9] | pIC50 [10] | SMILES |
| --- | --- | --- | --- | --- | --- | --- | --- | --- | --- | --- |
| 5.47 | 4.54 | 6.00 | 8.49 | 4.62 | 6.92 | 4.55 | 8.37 |  |  | CC(C)(C)n1nc(Cc2cccc3ccccc23)c2c(N)ncnc21 |
|  | 4.74 |  | 8.19 | 4.66 |  | 6.00 | 8.82 | 7.01 | 7.82 | CC(C)(C)n1nc(-c2cccc3ccccc23)c2c(N)ncnc21 |
